Laboratory results: PMC8000724, “Trans-Epithelial Transport, Metabolism, and Biological Activity Assessment of the Multi-Target Lupin Peptide [sequence] (P5) and Its Metabolite [sequence] (P5-Met)” (Nutrients, 2021)

Experiments:
[1] = tested on: LDLR on HepG2 cell surface; assay: In-cell Western (ICW) assay, LDLR localized on HepG2 cell surface; format: cell-based, human
Description: For the experiments, a total of 3 × 10^4 HepG2 cells/well were seeded in 96-well plates. The following day, cells were washed with PBS and then starved overnight (O/N) in DMEM without FBS and antibiotics. After starvation, HepG2 cells were treated with 4.0 μg/mL PCSK9-WT and 4.0 μg/mL PCSK9 + peptides P5 and/or P5-met (50 µM) and vehicle (H2O) for 2 h at 37 °C under 5% CO2 atmosphere. Subsequently, they were fixed in 4% paraformaldehyde for 20 min at room temperature (RT). Cells were washed 5 times with 100 µL of PBS/well (each wash was for 5 min at RT) and the endogenous peroxides activity quenched adding 3% H2O2 for 20 min at RT. Non-specific sites were blocked with 100 µL/well of 5% bovine serum albumin (BSA, Sigma) in PBS for 1.5 h at RT. LDLR primary antibody solution (1:3000 in 5% BSA in PBS, 25 µL/well) was incubated O/N at +4 °C. Subsequently, the primary antibody solution was discarded and each sample was washed 5 times with 100 µL/well of PBS (each wash was for 5 min at RT). Goat anti-rabbit Ig-HRP secondary antibody solution (Santa Cruz) (1:6000 in 5% BSA in PBS, 50 µL/well), was added and incubated 1 h at RT. The secondary antibody solution was washed 5 times with 100 µL/well of PBS (each wash for 5 min at RT). Freshly prepared TMB substrate (Pierce, 100 µL/well) was added and the plate was incubated at RT until desired color was developed. The reaction was stopped with 2 M H2SO4 and then the absorbance at 450 nm was measured using the microplate reader Synergy H1 (Winooski, VT, USA). After the read, cells were stained by adding 1× Janus Green stain, incubating for 5 min at RT. The dye was removed and the sample washed 5 times with water. Afterward 100 µL 0.5 M HCl for well were added and incubated for 10 min. After 10 seconds shaking, the OD at 595 nm was measured using the microplate reader Synergy H1 (Winooski, VT, USA).

[2] = target: T1, HMGCoAR (catalytic domain) (Homo sapiens, UniProt P04035); assay: HMGCoAR activity assay; format: biochemical; conditions: 10-500 µM peptide, 37 °C, NADPH absorbance 340 nm at 0 and 10 min
T1 construct: finally the HMGCoAR (catalytic domain) (2 µL); purchased Sigma-Aldrich
T1 sequence (P04035 340-888 limits assumed): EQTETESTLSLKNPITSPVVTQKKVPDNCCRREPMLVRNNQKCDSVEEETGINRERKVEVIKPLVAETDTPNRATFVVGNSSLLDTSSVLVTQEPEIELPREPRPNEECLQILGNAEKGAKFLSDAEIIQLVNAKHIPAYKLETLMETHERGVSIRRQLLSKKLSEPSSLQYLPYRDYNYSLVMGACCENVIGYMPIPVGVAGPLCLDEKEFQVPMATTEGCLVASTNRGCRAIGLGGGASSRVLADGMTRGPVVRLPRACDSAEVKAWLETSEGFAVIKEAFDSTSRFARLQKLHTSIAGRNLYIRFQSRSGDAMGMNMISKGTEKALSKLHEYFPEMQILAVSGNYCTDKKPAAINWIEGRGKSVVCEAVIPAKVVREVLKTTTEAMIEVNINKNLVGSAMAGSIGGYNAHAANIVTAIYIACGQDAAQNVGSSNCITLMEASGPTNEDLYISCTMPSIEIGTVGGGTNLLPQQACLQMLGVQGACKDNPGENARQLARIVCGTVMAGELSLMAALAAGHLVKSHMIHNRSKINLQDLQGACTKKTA
Description: The experiments were carried out following the manufacturer instructions and optimized protocol. The assay buffer, NADPH, substrate solution, and HMGCoAR were provided in the HMGCoAR Assay Kit (Sigma Aldrich SRL, Milan, Italy). The experiments were carried out following the manufacturer instructions at 37 °C. In particular, each reaction (200 µL) was prepared adding the reagents in the following order: 1× assay buffer, a 10–500 µM doses of P5 and P5-met or vehicle (C), the NADPH (4 µL), the substrate solution (12 µL), and finally the HMGCoAR (catalytic domain) (2 µL). Subsequently, the samples were mixed and the absorbance at 340 nm read by the microplate reader Synergy H1 (Winooski, VT, USA) at time 0 and 10 min. The HMGCoAR-dependent oxidation of NADPH and the inhibition properties of peptides were measured by absorbance reduction, which is directly proportional to enzyme activity.

[3] = tested on: HNF-1α; assay: Western blot, HNF-1α protein level in HepG2 cells; format: cell-based, human; conditions: HepG2, 50 µM, 24 h, mean ± SD
Description: (§1) The HepG2 cell line was bought from ATCC (HB-8065, ATCC from LGC Standards, Milan, Italy) and was cultured in DMEM high glucose with stable L-glutamine, supplemented with 10% FBS, 100 U/mL penicillin, 100 µg/mL streptomycin (complete growth medium) with incubation at 37 °C under 5% CO2 atmosphere.
(§2) Immunoblotting experiments were performed using optimized protocol. A total of 1.5 × 10^5 HepG2 cells/well (24-well plate) were treated with 50 μM of P5 and P5-met for 24 h. After each treatment, the supernatants were collected and stored at −20°C; cells were scraped in 40 µL ice-cold lysis buffer (RIPA buffer + inhibitor cocktail + 1:100 PMSF + 1:100 Na-orthovanadate + 1:1000 β-mercaptoethanol) and transferred in ice-cold microcentrifuge tubes. […] Total proteins were quantified by the Bradford’s method and 50 μg of total proteins loaded on a pre-cast 7.5% Sodium Dodecyl Sulfate-Polyacrylamide (SDS-PAGE) gel at 130 V for 45 min. […] Target proteins, on milk or BSA blocked membrane, were detected by primary antibodies as follows: anti-SREBP-2, anti-LDLR, anti-HMGCoAR, anti-PCSK9, anti HNF1-α and anti-β-actin. Secondary antibodies conjugated with HRP and a chemiluminescent reagent were used to visualize target proteins and their signal was quantified using the Image Lab Software (Biorad, Hercules, CA, USA). […]

[4] = tested on: PCSK9; assay: Western blot, PCSK9 protein level in HepG2 cells; format: cell-based, human; conditions: HepG2, 50 µM, 24 h, mean ± SD
Description: as §1, §2

IC50 [2]: 175 µM
Substance: H-LPKHSDAD-OH [Peptide P5-met]
LDLR localized on the cellular membranes of HepG2 cells versus the control ([1]; HepG2, 50 µM, without added PCSK9, mean ± SD): 145.2 ±15.2%
LDLR level on HepG2 cell surface restored, co-incubation with PCSK9 ([1]; peptide 50 µM + PCSK9 4 µg/mL, 2 h, % of control, mean ± SD): 90.1 ± 0.1%
Decrease of HNF-1α protein [3]: 10.8 ± 3.5%
Decrease of PCSK9 protein level [4]: 29 ± 8.1%
